Legend:
[1] = system: RT112; test: Cell survival assay (MTT assay), urothelial cancer cell line RT112; assay type: cell-based, human
Procedure: (§1) Three human urothelial cancer cell lines (RT112, 253J, and J82) were used to analyze the antitumor effect of rare sugars. Ten rare sugars of L-allulose, D-allulose, D-allose, L-fructose, D-mannose, L-sorbose, D-tagatose, D-galactose, D-sorbose, and L-tagatose were used, and D-glucose and D-fructose were used as monosaccharides other than the rare sugars. A minimum essential medium (MEM) containing D-glucose at 1,000 mg/l was used as the culture medium, and the antitumor effect of a rare sugar was evaluated in a prepared MEM containing a monosaccharide or a rare sugar at 10 mM, 25 mM, or 50 mM [in the drawings, indicated by (10), (25), or (50)]. An MEM containing no sugar was used for control. With the MEM, cell suspensions each at 5.0×10^4 cells/ml were prepared. Each suspension was distributed in a 96-well plate at 0.1 ml/well and then was incubated for 24 hours. The culture solution was then removed, next a culture solution containing a monosaccharide or a rare sugar at 10 mM, 25 mM, or 50 mM in the MEM was added at 0.1 ml/well, and the whole was incubated for 24 hours (#1 to #13). An MTT assay is a test method for determining survival and uses a color reaction of an insoluble formazan pigment (blue) formed by reduction of MTT as a tetrazolium salt. […] The coloration is measured with a microplate reader to determine the cell survival rate.

[2] = system: 253J; test: Cell survival assay (MTT assay), urothelial cancer cell line 253J; assay type: cell-based, human
Procedure: as §1

[3] = Basic safety tests (mutagenicity, biodegradability, acute oral toxicity, primary skin irritation, primary eye irritation); details: tests ordered to a designated laboratory
Text: The safety of D-allose required for use as a pharmaceutical component is probably sufficient because the rare sugar is a monosaccharide present even in a trace amount in nature. Mutagenicity test, biodegradability test, and three acute toxicity tests (acute oral toxicity test, primary skin irritation test, and primary eye irritation test) are established as the most basic safety tests.

[4] = system: J82; test: Cell survival assay (MTT assay), urothelial cancer cell line J82; assay type: cell-based, human
Procedure: as §1

[5] = compared with 11 other monosaccharides/rare sugars at 10-50 mM

O=C[C@H](O)[C@H](O)[C@H](O)[C@H](O)CO [D-allose]
survival rate as compared with the control ([1]; 10 mM, 25 mM and 50 mM in MEM, 24 hours, p<0.05, FIG. 1): significantly reduced the survival rate
antitumor effect relative to the other analyzed sugars [1, 5]: strongest antitumor effect among the analyzed sugars
survival rate as compared with the control ([2]; 10 mM, 25 mM and 50 mM in MEM, 24 hours, p<0.05, FIG. 2): significantly reduced the survival rate
antitumor effect relative to the other analyzed sugars [2, 5]: strongest antitumor effect among the analyzed sugars
result of basic safety tests [3]: sufficient safety
survival rate as compared with the control ([4]; 10 mM, 25 mM and 50 mM in MEM, 24 hours, p<0.05, FIG. 3): significantly reduced the survival rate
antitumor effect relative to the other analyzed sugars [4, 5]: strongest antitumor effect among the analyzed sugars
